Common to all, as to format: physicochemical
A short description of series [1]: Solubility of TRIMEA and DIMEB and complex formation between the two hosts in absence of a guest. The protocol:
TRIMEA and DIMEB dissolve in water more than 33 g per 100 ml of water. The solubilities of both these compounds in water can be decreased by the addition of salts or by an increase of temperature. Thus, in aqueous solution of sodium sulfate (1 M), TRIMEA dissolved to the saturation concentration just of 0.4 mg/ml and DIMEB to 3.4 mg/ml. […] If a 1:1 complex between TRIMEA and DIMEB is assumed to form, the association constant of 700 [1/M] can be estimated for that complex, which is of the same order of magnitude as association constants of many complexes formed of guests and cyclodextrins.

Series [2] can be described thus: Preparation and stabilization of colloidal compositions of calcium fluoride. The following applies: alone or in combination with TRIMEA; precipitation from calcium chloride and sodium fluoride.
Series [3] deals with insulin (Homo sapiens, UniProt P01308). In words: Stabilization and solubilization of insulin by highly methylated cyclodextrins. The following applies: cyclodextrins at 2 or 4% in phosphate buffered solution, insulin 1 mg/ml, final pH less than 6.

Like-named read-outs stand apart in the source and are kept apart here.

insulin, sequence (P01308 25-54 limits assumed, species assumed): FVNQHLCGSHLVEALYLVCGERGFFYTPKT
insulin, sequence (P01308 90-110 limits assumed, species assumed): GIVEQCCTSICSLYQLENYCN

The compound `COC[C@H]1O[C@@H]2O[C@H]3[C@H](O)[C@@H](OC)[C@@H](O[C@H]4[C@H](O)[C@@H](OC)[C@@H](O[C@H]5[C@H](O)[C@@H](OC)[C@@H](O[C@H]6[C@H](O)[C@@H](OC)[C@@H](O[C@H]7[C@H](O)[C@@H](OC)[C@@H](O[C@H]8[C@H](O)[C@@H](OC)[C@@H](O[C@H]1[C@H](O)[C@H]2OC)O[C@@H]8COC)O[C@@H]7COC)O[C@@H]6COC)O[C@@H]5COC)O[C@@H]4COC)O[C@@H]3COC` [DIMEB] yielded a saturation concentration in series [1] (aqueous solution of sodium sulfate (1 M)) of 3.4 mg/mL. The “preparation and stabilization of colloidal compositions of calcium fluoride” value in series [2] is given as “effective”.
In turn, `COC[C@H]1O[C@@H]2O[C@@H]3[C@@H](OC)[C@@H](OC)[C@@H](O[C@@H]4[C@@H](OC)[C@@H](OC)[C@@H](O[C@@H]5[C@@H](OC)[C@@H](OC)[C@@H](O[C@@H]6[C@@H](OC)[C@@H](OC)[C@@H](O[C@@H]7[C@@H](OC)[C@@H](OC)[C@@H](O[C@@H]1[C@@H](OC)[C@H]2OC)O[C@@H]7COC)O[C@@H]6COC)O[C@@H]5COC)O[C@@H]4COC)O[C@@H]3COC` [TRIMEA] returned a saturation concentration in series [1] of 0.4 mg/mL. Also, the “stabilizer of the dissolved insulin” value in series [3] is recorded as “more effective stabilizer of the dissolved insulin than DIMEB or TRIMEB”.

Values taken from patent publication US6576261B1, “Potentiation of inclusion complex formation of cyclodextrin derivatives” (priority 1999, dated 2003).
